Data set [1] deals with patients suffering from a mild to moderate form of keratoconjunctivitis sicca. It counts as in vivo, human. Particulars: for tolerability: human, in vivo. The procedure:
In one study, 64 patients suffering from a mild to moderate form of keratoconjunctivitis sicca were examined. […] The majority (72%) of the patients were female. For at least one eye in each case, the tear break-up time (TBUT), i.e., the time until dry spots reappear on the cornea after blinking, was less than 10 sec. The TBUT was used as the main parameter for the treatment assessment. Over a period of 28 days, 34 patients were treated with an ectoine-containing composition and the other 30 patients with hyaluronic acid as reference. 59 of the patients finished the study as planned; 5 patients left prematurely. […] Especially the sensation of foreign bodies and the sensation of tired eyes were rated as improved following the treatment. 78.8% of the ectoine-treated patients and 71.4% of the hyaluronic acid-treated patients would continue use.

Data set [2] has the same test system. In words: Clinical study, OSDI (ocular surface disease index) quality of life. It counts as in vivo, human. Particulars: within the 28-day observation period. The protocol: In one study, 64 patients suffering from a mild to moderate form of keratoconjunctivitis sicca were examined. […] The majority (72%) of the patients were female. For at least one eye in each case, the tear break-up time (TBUT), i.e., the time until dry spots reappear on the cornea after blinking, was less than 10 sec. The TBUT was used as the main parameter for the treatment assessment. Over a period of 28 days, 34 patients were treated with an ectoine-containing composition and the other 30 patients with hyaluronic acid as reference. 59 of the patients finished the study as planned; 5 patients left prematurely. The quality of life of the patients was determined on the basis of the OSDI (ocular surface disease index). The OSDI assessment consists of 12 questions answered by the patients on a scale of 0 to 4 (0=never; 4=always). The higher the OSDI value, the stronger the impairment of the daily life of the disease. Within the observation period, it was possible to observe a decrease of 17.7 points in the case of the ectoine-treated patients and of 17.2 points in the case of the hyaluronic acid-treated patients.

Data set [3] is described as follows: Atomic force microscopy (AFM) topography of Langmuir-Blodgett-transferred meibomian lipid layers. It counts as physicochemical, human. The protocol:
The topography of the surface of the lipid layers was examined with the aid of an atomic force microscope (atomic force microscopy, AFM). To this end, the lipid layer was transferred to a solid surface using the Langmuir-Blodgett technique; thereafter, the AFM measurements were carried out at pressures of 5 mN/m, 20 mN/m and 23.5 mN/m and 20° C. At a relatively low pressure of 5 mN/m, it was possible to observe small fibrous structures of up to approx. 5 nm in height distributed over the entire area. Layers of hydrophobic lipids such as cholesteryl esters and triglycerides might be involved here. At higher pressures of 20 mN/m, the number of fibrous structures increased.
In the presence of 100 mM ectoine, droplet-type structures of up to approx. 300 nm in height were observed. At higher ectoine concentrations, the diameter of the droplet-type structures increased.

The test system of data set [4] is patients suffering from a mild to moderate form of keratoconjunctivitis sicca. Nature of the data set: Clinical study, lacrimation according to Schirmer's test II. It counts as in vivo, human. The procedure:
In one study, 64 patients suffering from a mild to moderate form of keratoconjunctivitis sicca were examined. […] The majority (72%) of the patients were female. For at least one eye in each case, the tear break-up time (TBUT), i.e., the time until dry spots reappear on the cornea after blinking, was less than 10 sec. The TBUT was used as the main parameter for the treatment assessment. Over a period of 28 days, 34 patients were treated with an ectoine-containing composition and the other 30 patients with hyaluronic acid as reference. 59 of the patients finished the study as planned; 5 patients left prematurely. Lacrimation was examined according to the Schirmer's test II. This was lower for the ectoine patients than for the hyaluronic acid patients both at the start (8.8 mm/5 min compared to 16.0 mm/5 min) and at the end (10.6 mm/5 min compared to 16.8 mm/5 min) of the treatment, it being possible to observe a more distinct improvement for the ectoine-treated patients than for the hyaluronic acid-treated patients (1.8 mm/5 min compared to 0.8 mm/5 min).

For data set [5] the test system is unchanged. In words: Clinical study, tear break-up time (TBUT). It counts as in vivo, human. The protocol: In one study, 64 patients suffering from a mild to moderate form of keratoconjunctivitis sicca were examined. […] The majority (72%) of the patients were female. For at least one eye in each case, the tear break-up time (TBUT), i.e., the time until dry spots reappear on the cornea after blinking, was less than 10 sec. The TBUT was used as the main parameter for the treatment assessment. Over a period of 28 days, 34 patients were treated with an ectoine-containing composition and the other 30 patients with hyaluronic acid as reference. 59 of the patients finished the study as planned; 5 patients left prematurely. On average, the TBUT improved within the 28-day observation period by 2.6 sec (p=0.0011) for ectoine-treated patients and by 1.1 sec (p=0.1686) for the hyaluronic acid-treated patients.

The nature of data set [6]: Compression of meibomian lipid monolayers on PBS subphase with different ectoine concentrations (surface pressure-area isotherms). It counts as physicochemical, human. The protocol:
Meibomian lipids were obtained from the meibomian glands of four healthy volunteers. The lipids were dissolved in chloroform/methanol (1:1, v/v) and applied to an aqueous subphase (PBS, phosphate-buffered saline solution, pH 7.4, T=20° C.). After an equilibration time of 10-15 min, the monolayers were compressed at 2.9 cm^2/min. The subphase was provided with different ectoine concentrations. The result of the compression of the lipid film on a PBS subphase without ectoine is depicted in FIG. 2A. No phase transitions are observed up to a surface pressure of 20 mN/m. […] Ectoine therefore enlarges the spaces between the molecules.

As for hyaluronic acid [reference compound], the tolerability result in data set [1] is recorded as “generally well tolerated”.

As to `CC1=N[C@H](C(=O)O)CCN1` [ectoine, (S)-2-methyl-1,4,5,6-tetrahydropyrimidine-4-carboxylic acid], the “estimation of the effectiveness of the treatment according to patients' estimates” value in data set [1] (after 28-day treatment) is recorded as 0.9 points. The tolerability result in data set [1] is reported as “generally well tolerated”. Also, the “decrease of OSDI” value in data set [2] came to 17.7 points. The “formation of droplet-type structures” value in data set [3] (50 mM ectoine, AFM) is “comparatively scattered and distinctly smaller”. For the same molecule, the “thickness of the lipid layer at the sites of the droplet-type clusters” value in data set [3] (100 mM ectoine in the lacrimal fluid (model of FIG. 1B), approx. 20 nm in the absence of ectoine) is on record as “approx. 200 nm”. For the same molecule, the “height of droplet-type structures” value in data set [3] (100 mM ectoine, AFM, 20° C.) is no more than 300 nm. Moreover, in data set [3] (ectoine concentrations higher than 100 mM, AFM), the “diameter of the droplet-type structures” value is listed as “increased”. In data set [4] (end of the 28-day treatment), the “lacrimation, Schirmer's test II, at the end of the treatment” value was 10.6 mm/5 min. For the same molecule, the “improvement of lacrimation, Schirmer's test II” value in data set [4] (end vs start of the 28-day treatment) worked out at 1.8 mm/5 min. The “lacrimation, Schirmer's test II, at the start of the treatment” value in data set [4] (start of the treatment (baseline)) is listed as 8.8 mm/5 min. Moreover, in data set [5] (28 days, ectoine compared with hyaluronic acid), the “improvement of TBUT in patients with severe keratoconjunctivitis sicca and TBUT<5 sec” value was “stronger improvement”. Also, in data set [5] (within the 28-day observation period), the “improvement of TBUT on average” value is 2.6 s. Further, in data set [6] (ectoine in PBS subphase vs without ectoine), the “hysteresis of compression-expansion curves” value is “no significant differences”. Moreover, in data set [6] (ectoine in PBS subphase, pH 7.4, 20° C., vs subphase without ectoine, effect is concentration-dependent), the “shift of the compression isotherm (area per molecule)” value was “isotherm shifts in the direction of a larger area per molecule”.
